# Key:
# [1] = stability of the isolated material on storage; type: physicochemical
# wild type AR = conditions: read-out: Kd for [^3H]-DHT; MDA 453 cells (wild type AR), saturation analysis, Scatchard
# Description: For the saturation analysis, the difference between the total binding and the non-specific binding, is defined as specific binding.
# Two replicates are used for each sample. After 4 hours at 37° C., cells are washed, harvested, and counted as described above. […] The K1 values are determined by application of the Cheng-Prusoff equation to the IC50 values, where:
# [formula] After correcting for non-specific binding, IC50 values are determined. […] Murine Breast Cell Proliferation Assay
# AR = target: T1, AR (Rattus norvegicus, UniProt P15207)
# T1 sequence (P15207 1-902): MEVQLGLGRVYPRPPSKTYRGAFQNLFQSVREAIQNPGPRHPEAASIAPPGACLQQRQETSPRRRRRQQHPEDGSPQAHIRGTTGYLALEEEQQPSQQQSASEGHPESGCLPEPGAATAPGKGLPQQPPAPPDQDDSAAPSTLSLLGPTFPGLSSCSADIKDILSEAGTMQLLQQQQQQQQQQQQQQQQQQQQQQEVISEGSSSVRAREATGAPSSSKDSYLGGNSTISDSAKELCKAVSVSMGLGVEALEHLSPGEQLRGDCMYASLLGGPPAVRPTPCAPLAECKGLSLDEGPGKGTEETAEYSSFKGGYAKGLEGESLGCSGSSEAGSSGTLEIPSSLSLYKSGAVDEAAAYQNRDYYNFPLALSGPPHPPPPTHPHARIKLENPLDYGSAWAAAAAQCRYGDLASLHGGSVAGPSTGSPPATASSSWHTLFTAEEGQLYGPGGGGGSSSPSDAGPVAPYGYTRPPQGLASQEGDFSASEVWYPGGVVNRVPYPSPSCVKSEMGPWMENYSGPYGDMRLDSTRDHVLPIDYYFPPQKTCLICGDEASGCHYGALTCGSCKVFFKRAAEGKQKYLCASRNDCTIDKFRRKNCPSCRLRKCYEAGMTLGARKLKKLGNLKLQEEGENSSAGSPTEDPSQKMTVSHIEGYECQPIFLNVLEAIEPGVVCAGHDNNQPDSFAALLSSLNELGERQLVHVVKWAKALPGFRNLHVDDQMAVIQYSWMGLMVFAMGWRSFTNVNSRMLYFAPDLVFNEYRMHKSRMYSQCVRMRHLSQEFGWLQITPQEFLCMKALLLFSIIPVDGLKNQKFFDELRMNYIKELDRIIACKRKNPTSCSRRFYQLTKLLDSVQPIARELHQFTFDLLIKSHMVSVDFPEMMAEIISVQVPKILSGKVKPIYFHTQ
# [2] = serum T and DHT concentrations after subcutaneous injection; conditions: over 24 hours
compound,measurement,setting,value
"N#Cc1ccc(N2C[C@H]3[C@H]4CC[C@H](C4)[C@@]3(COS(=O)(=O)C(F)(F)F)S2(=O)=O)cc1C(F)(F)F [Example 61, ((1R,2R,6R,7S)-4-(4-cyano-3-(trifluoromethyl)phenyl)-3,3-dioxido-3-thia-4-azatricyclo[5.2.1.0^2,6]dec-2-yl)methyl trifluoromethanesulfonate]",stability,"[1]; under an inert atmosphere, unpurified material",stable for several weeks under an inert atmosphere
tritiated dihydrotestosterone [[^3H]-DHT],Kd,wild type AR,700 pM
"N#Cc1ccc(N2C[C@H]3[C@H]4CC[C@H](C4)[C@@]3(CN=[N+]=[N-])S2(=O)=O)cc1C(F)(F)F [Example 65, 4-((1R,2R,6R,7S)-2-(azidomethyl)-3,3-dioxido-3-thia-4-azatricyclo[5.2.1.0^2,6]dec-4-yl)-2-(trifluoromethyl)benzonitrile]",stability,[1]; ambient conditions,prone to decomposition under ambient conditions
"CCC(=O)O[C@H]1CC[C@H]2[C@@H]3CCC4=CC(=O)CC[C@]4(C)[C@H]3CC[C@]12C [TP, testosterone propionate]",potency relative to free T,AR; higher potency than free T,10-30 fold
same,ED80,"AR; immature castrated rat model, weights of VP and SV",0.1 mg
same,"EC50 (increase in organ weight, VP and SV)","AR; immature castrated rats, dosing for 3 days",~0.03 mg
"C[C@]12CC[C@H]3[C@@H](CCC4=CC(=O)CC[C@@]43C)[C@@H]1CC[C@@H]2O [T, testosterone]",course of serum concentrations of T and DHT,[2],decline very rapidly

# From patent publication US7468439B2, “Alkylene bridged sultam compounds useful as modulators of nuclear hormone receptor function” (Bristol-Myers Squibb Company, priority 2006, dated 2008)
